These results are taken from patent US10945983B2, “Oleocanthal isolation and cancer treatment” (Board of Supervisors for the University of Louisiana System, priority 2016, dated 2021).

Where two headings read alike, the source gives them in different places.

Data set [1] relates to MDA-MB-231/GFP human breast cancer cells. In words: Orthotopic TNBC xenograft model in athymic mice. Format: in vivo, athymic nude mice. The following applies: intraperitoneal 5 mg/kg, 3× per week; previous experiments of the inventors. Here is the method: MDA-MB-231/GFP human breast cancer cells were cultured and resuspended in serum-free DMEM medium (20 μl). After anesthesia, cell suspensions (1×10^6 cells/20 μl) were inoculated subcutaneously into the second mammary gland fat pad just beneath the nipple of each athymic nude mouse to generate orthotopic breast tumors. […] FIG. 20 is a line chart showing tumor size was evaluated periodically during treatment at indicated days postinoculation. Tumor volume (V) was calculated by V=L/2×W^2, where L was the length and W was the width of tumors. […]
Turning to FIGS. 20-23, in the current disclosure, as a future dietary candidate OC nano-emulsion oral in vivo antitumor efficacy was assessed using the same mouse model using MDA-MB-231/GFP human BC cells. […] The mice were monitored by measuring body weight, and observation of their physical behavior throughout the study. […]
MDA-MB-231/GFP human breast cancer cells were harvested, pelleted by centrifugation at 850×g for 5 minutes, and re-suspended in sterile serum-free DMEM medium (20 μL). […] The mice were monitored by measuring tumor volume, body weight, and clinical observation. Tumor volume (V) was calculated by V=L/2×W^2, where L was the length and W was the width of tumors. […]

Data set [2] has as its system BT-474 human BC cells. The following applies: for BT-474 tumor weight inhibition vs vehicle: 3×/week, intraperitoneal, 60 days; for BT-474 tumor growth inhibition: 5×/week. The procedure:
5×10^6 cells/20 μL BT-474 human BC cells were sc inoculated into second mammary gland fat pad of athymic nude (Foxn1^nu/Foxn^1). […] Top panels show photographs of representative intact animal for each group. Bottom panels show photographs of excised primary tumor at experiment end.
Turning to FIGS. 28A-32, the HER2+ BC represents >15% of total BC cases with aggressive metastatic and highly resistant profile.

The test system of data set [3] is HER2+-ER+BT-474 BC cells. The experiment in a line: BT-474 recurrence after neoadjuvant lapatinib regimen. Format: in vivo, athymic nude mice. The following applies: OC 10 mg/kg, ip, 3×/week, additional 54 days after lapatinib 50 mg/kg for 60 days. Here is the method:
FIG. 36A is a photograph of representative animals of vehicle control group and two photographs showing circled tumor developed over the additional 54 days period. FIG. 36B is two photographs of representative animals that completed 60 days oral lapatinib 50 mg/kg group and two photographs of developed circled tumors after additional 54 days. FIG. 36C is two photographs of representative animals of 10 mg OC 1p, 3×/week group, and two photographs showing no tumor developed over the additional 54 days regimen.
(§1) The correlation between c-Met/HGF pathway and tumor resistance is documented. […] This was consistent with the OC c-Met inhibitory activity and previously shown growth and recurrence effects.

In data set [4] the test system is TNBC MDA-MB-231 BC cells. The experiment in a line: TNBC recurrence after neoadjuvant paclitaxel. The following applies: 10 mg/kg oral daily. Format: in vivo.
Text: as §1

Data set [5] addresses mTOR (Homo sapiens, UniProt P42345). The note with it: read-out: IC50 mTOR enzymatic activity; cited from earlier work.
Data set [6] relates to BT-474 tumor recurrence. In words: HER2+/ER+ BT-474 recurrence after primary tumor surgical excision. The following applies: for recurrence tumor weight inhibition: additional 54 days after excision.
Description: Female athymic nude mice used in previous experiment were anesthetized prior to the surgical excision procedure with ip ketamine/xylazine combination (100 mg/kg/15 mg/kg). 15-20 min after administering the anesthetic animal reflexes tested by gently tapping the hind legs with sterile syringe needle and finally their tumors were surgically excised and each wound was closed by one or two stitches. Ketoprofen, 1 mg/kg was used 12 hours before and 12 h after surgery for effective analgesia. Ophthalmic lubricant was used during the surgery to prevent corneal drying. Bupivicaine (0.25%, 1-2 drops), twice daily, was used topically at the excision wound site, local infiltration along surgery site during closure with a maximum dose of 2 mg/kg.

`C/C=C(/C=O)[C@@H](CC=O)CC(=O)OCCc1ccc(O)cc1` [OC, (-)-Oleocanthal]: the tumor growth inhibition in data set [1] was 65%. Moreover, the “BT-474 tumor weight inhibition vs vehicle” value was 88.2% in data set [2] (5 mg/kg) and 93.2% in data set [2] (10 mg/kg). For the same molecule, the “tumor recurrence after lapatinib regimen” value in data set [3] is “inhibited the HER2+-ER+BT-474 BC cells recurrence”. In addition, the “recurrence and chemoresistance after neoadjuvant paclitaxel” value in data set [4] was “effectively inhibited in vivo recurrence and reversed chemoresistance”. The IC50 (as a rule, the midpoint of a concentration-inhibition curve) in data set [5] was 708 nM. The “recurrence tumor weight inhibition” value in data set [6] (10 mg/kg, ip, 3×/week) was found to be 86.2%.

As for `CS(=O)(=O)CCNCc1ccc(-c2ccc3ncnc(Nc4ccc(OCc5cccc(F)c5)c(Cl)c4)c3c2)o1` [lapatinib, reference compound], the “BT-474 tumor growth inhibition” value in data set [2] (12.5 mg oral dose) is listed as 85.9%; in data set [2] (50 mg oral dose) it was 89.9%. In data set [6] (50 mg/kg, 5×/week oral), the “recurrence tumor weight inhibition” value stood at 81.4%. In addition, in data set [6] (lapatinib 50 mg/kg, additional 54 days), the body weight result is reported as “significant weight decrease”.
